Measured values published in patent US20240140962A1, “5,6-DIHYDROTHIENO[3,4-H]QUINAZOLINE COMPOUND” (MEDSHINE DISCOVERY INC., priority 2021, published 2024).
Where two headings read alike, the source gives them in different places. Each block holds one compound with its values, some of them ahead of it.

Experiments:
[1] = Pharmacokinetic study in CD-1 male mice by oral administration and intravenous injection; type: in vivo; conditions: for Vd: read-out: Apparent volume of distribution Vdss; for AUC(0-t): read-out: Area under the plasma concentration-time curve AUC0-24 h; for clearance: read-out: Clearance CL; for half-life: read-out: Half-life T½ (converted); for Cmax: read-out: Peak concentration Cmax; for Tmax: read-out: Peak time Tmax; for bioavailability: read-out: Bioavailability F
Text: The purpose of this experiment is to study the pharmacokinetics of the test compound in the plasma of CD-1 male mice after intravenous injection and oral administration.
Intravenous injection group: an appropriate amount of the test compound was weighed and dissolved in 20% SBE-b-CD aqueous solution and the pH was adjusted to 4 to 5 with 6 M hydrochloric acid, and the mixture was vortexed for 2, minutes to obtain a clear solution, and then pH was adjusted around 7 with 5 N sodium hydroxide, and the mixture was vortexed for 1 minute to prepare a 1.5 mg/mL clear solution, which was filtered through a 0.22 μm microporous membrane for later use. CD-1 male mice from 6 to 10 weeks old were selected and given a solution of the test compound intravenously. Samples were collected at 0.083, 0.25, 0.5, 1, 2, 4, 6, 8, and 24 hours.
Oral administration group: an appropriate amount of the test compound was weighed and dissolved in 20% SBE-b-CD aqueous solution, and the pH was adjusted to 3 to 4 with 6 M hydrochloric acid, and the mixture was vortexed for 2, minutes to obtain a clear solution, and then pH was adjusted around 7 with 5 N sodium hydroxide, and mixture was vortexed for 1 minute to prepare a 2.0 mg/mL clear solution for later use. CD-1 male mice between 6 and 10 weeks of age were selected and given the test compounds orally. Samples were collected at 0.25, 0.5, 1, 2, 4, 6, 8, 10, and 24 hours.
Approximately 50 μL of whole blood was collected through the jugular vein at each time point for plasma preparation for concentration determination by high performance liquid chromatography-tandem mass spectrometry (LC-MS/MS). All animals were euthanized under CO2 anesthesia after collecting the PK samples at the last time point. The plasma concentration was processed using the non-compartmental model of WinNonlin™ Version 6.3 (Pharsight, Mountain View, CA) pharmacokinetic software, and the pharmacokinetic parameters were calculated using the linear logarithmic trapezoidal method, and the experimental results are shown in Table 4.

HCT116 cells = assay: HCT116 cytological activity in vitro (3D CellTiter-Glo proliferation); type: cell-based, human; conditions: 5 days culture, ultra-low adsorption plates
Procedure: McCoy's 5A medium, penicillin/streptomycin antibiotics was purchased from Vicente, and fetal bovine serum was purchased from Biosera. 3D CellTiter-Glo (cell viability chemiluminescence assay reagent) reagent was purchased from Promega. HCT116 cell line was purchased from Nanjing Cobioer Biosciences Co., Ltd. Envision multimode microplate reader (PerkinElmer).
HCT116 cells were seeded in ultra-low adsorption 96-well U-plates, 80 μL of cell suspension per well, which contained 1000 HCT116 cells. Cell plates were cultured overnight in a carbon dioxide incubator.
The compound to be tested was 5-fold diluted to the 9th concentration with a pipette, that is, diluted from 2 mM to 5.12 nM, and a double-well experiment was set up. 78 μL of medium was added to the intermediate plate, and then 2 μL of each well of the gradient diluted compound was transferred to the intermediate plate according to the corresponding position, 20 μL of each well was transferred to the cell plate after mixing well. Compound concentrations transferred to cell plates ranged from 10 μM to 0.0256 nM. Cell plates were cultured in a carbon dioxide incubator for 5 days. Another cell plate was prepared, and the signal value was read as the maximum value (Max value in the following equation) on the day of drug addition to participate in data analysis.
Every 100 μL of cell viability chemiluminescent detection reagent was added to the cell plate, and incubated at room temperature for 10 minutes to stabilize the luminescent signal. A multimode microplate reader was used to read.
The equation (Sample−Min)/(Max−Min)*100% was used to convert the original data into an inhibition rate, and the value of IC50 can be obtained by curve fitting with four parameters (“log(inhibitor) vs. response in GraphPad Prism—Variable slope” mode). Table 3 provides the inhibitory activity of the compounds of the present disclosure against the proliferation of HCT116 cells.

[2] = tested on: human colon cancer HCT116 cells subcutaneous xenograft tumor; assay: In vivo pharmacodynamic study, subcutaneous xenograft tumor model of human colon cancer HCT116 cells; set-up: species or system BALB/c Nude mouse; conditions: 60 mg/kg PO QD (5 days on, 2 days off), tumor volume on day 22 after dosing
Procedure: In this experiment, human colon cancer HCT116 cells were subcutaneously transplanted into BALB/c Nude mouse model to evaluate the antitumor effect of the test compound in vivo.
HCT116 cell culture: 10% fetal calf serum was added to McCoy's 5A medium and cultured in 37° C. 5% CO2 cell incubator. When the cell saturation reached 80% to 90% and the number reached the requirement, cells were collected, counted and inoculated subcutaneously into BALB/c Nude mice (female, 6 to 7 weeks old)
When the tumors grew to a certain size, the animals with tumor volumes that were too large, too small, or with irregular tumor shapes were eliminated, and animals with tumor volumes ranging from 103.12 to 174.35 mm^3 were selected. According to the tumor volume, the animals were divided into 6 groups by random block method, and each group was composed of 6 mice wherein the average volume of the tumor was about 147.12 mm^3 , and the experimental grouping and dosing regimen were shown in Table 5 below. The health status and death of the animals were monitored every day. Routine inspections included observation of tumor growth and the effects of drug treatment on the daily behavior of the animals, such as behavioral activities, food and water intake, body weight changes (measured twice a week), tumor size (tumor volume was measured twice a week), appearance signs or other abnormal conditions.
The formula for calculating tumor volume (TV) was: ½×a×b^2, where a and b were the measured length and width of the tumor, respectively. The formula for calculating the tumor inhibition rate TGI (%) was: TGI (%)=[1−(average tumor volume at the end of administration of a certain treatment group−average tumor volume at the beginning of administration of this treatment group)/(average tumor volume at the end of treatment of the solvent control group−average tumor volume at the beginning of treatment in solvent control group)]×100%.
In this study, the experimental data were expressed as Mean±SEM. Statistical analysis was based on the data of RTV at the end of the experiment using IBM SPSS Statistics software. The comparison between two groups was analyzed by T test, and the comparison between three or more groups was analyzed by one-way ANOVA. If the variances were homogeneous (the F value had no significant difference), the Tukey's method was used for analysis. If the variances were not homogeneous (the F value had significant differences), and the Games-Howell method was used for testing. p<0.05 was considered as a significant difference.

[3] = target: human PLK1 protein kinase (Homo sapiens (Human), UniProt P53350); assay: PLK1 kinase activity in vitro, 33P isotope-labeled kinase activity assay; type: biochemical; conditions: 33P-ATP 30 μM, substrate Casein, PLK1 12 nM
Procedure: The ^33P isotope-labeled kinase activity assay (Reaction Biology Corp) was used to determine the IC50 value to evaluate the inhibitory ability of the test compound to human PLK1 protein kinase.
Buffer conditions: 20 mM HEPES (pH 7.5), 10 mM MgCl2, 1 mM EGTA, 0.01% Brij35, 0.02 mg/ml BSA, 0.1 mM Na3VO4, 2 mM DTT, 1% DMSO
Test steps: At room temperature, the compounds to be tested were dissolved in DMSO to prepare a 10 mM solution for use. The substrate Casein was dissolved in a freshly prepared buffer (with a final concentration of 20 μM), and the tested PLK1 kinase (with a final concentration of 12 nM) was added thereto and mixed well. The acoustic wave pipetting system Echo 550 was used to add the mother solution of the test compound dissolved in DMSO to the above mixed reaction mixture according to the set final concentration gradient (the highest final concentration was 1 μM, 3-fold dilution, 10 gradients). After incubation at room temperature for 20 minutes, ^33P-ATP (30 μM) was added, and after incubation at room temperature for 120 minutes, the reaction mixture was spotted on P81 ion exchange filter paper (Whatman #3698-915).

[4] = tested on: KRAS-mutant mCRC patients; conditions: cited from earlier work

human PLK1 protein kinase, sequence (P53350 whole entry): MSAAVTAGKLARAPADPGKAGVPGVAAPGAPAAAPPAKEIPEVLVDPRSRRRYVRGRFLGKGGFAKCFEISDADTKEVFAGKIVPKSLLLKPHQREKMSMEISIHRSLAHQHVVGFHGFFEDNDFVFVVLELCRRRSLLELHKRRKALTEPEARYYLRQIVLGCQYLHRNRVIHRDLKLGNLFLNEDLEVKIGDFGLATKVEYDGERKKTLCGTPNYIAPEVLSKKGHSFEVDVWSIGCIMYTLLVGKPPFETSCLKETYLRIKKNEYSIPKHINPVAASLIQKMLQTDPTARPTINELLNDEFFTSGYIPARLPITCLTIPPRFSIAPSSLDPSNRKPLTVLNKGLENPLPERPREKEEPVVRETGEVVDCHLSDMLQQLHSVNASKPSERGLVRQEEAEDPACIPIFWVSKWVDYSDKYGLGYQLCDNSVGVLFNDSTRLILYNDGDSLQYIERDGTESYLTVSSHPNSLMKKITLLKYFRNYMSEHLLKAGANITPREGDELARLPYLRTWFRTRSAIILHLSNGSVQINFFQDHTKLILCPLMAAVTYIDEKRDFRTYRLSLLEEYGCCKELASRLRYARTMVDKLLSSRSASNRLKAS

Compound: CN1CCN(c2ccc(OC(F)(F)F)c(Nc3ncc4c(n3)-c3c(SCCO)sc(C(N)=O)c3CC4)c2)CC1 [Compound 3]
IC50 [3]: 5 nM

Compound: CSc1sc(C(N)=O)c2c1-c1nc(Nc3cc(N4CCN(C)CC4)ccc3OC(F)F)ncc1CC2 [Compound 4]
IC50 [3]: 1 nM
IC50 (HCT116 cells): 35 nM

Compound: CN1CCN(c2ccc(OC(F)(F)F)c(Nc3ncc4c(n3)-c3c(C#N)sc(C(N)=O)c3CC4)c2)CC1 [Compound 13]
IC50 [3]: 4.9 nM

Compound: CSc1sc(C(N)=O)c2c1-c1nc(Nc3cc(N4CC5CC(C4)N5C)ccc3OC(F)(F)F)ncc1CC2 [Compound 15]
IC50 [3]: 6.4 nM

Compound: CN1CCN(c2ccc(OC(F)(F)F)c(Nc3ncc4c(n3)-c3c(OC5CC5)sc(C(N)=O)c3CC4)c2)CC1 [Compound 18]
Apparent volume of distribution Vdss ([1]; IV, 1.1 mg/kg, plasma): 2.38 L/kg
Area under the plasma concentration-time curve AUC0-24 h ([1]; IV, 1.1 mg/kg, plasma): 0.94 µM·h
Clearance CL ([1]; IV, 1.1 mg/kg, plasma): 31.4 mL/min/kg
Half-life T½ ([1]; IV, 1.1 mg/kg, plasma): 73.2 min
Bioavailability F ([1]; PO 3.4 mg/kg vs IV 1.1 mg/kg): 82.5%
Area under the plasma concentration-time curve AUC0-24 h ([1]; PO, 3.4 mg/kg, plasma): 2.129 µM·h
Peak time Tmax ([1]; PO, 3.4 mg/kg, plasma): 60 min
Cmax ([1]; PO, 3.4 mg/kg, plasma): 688 nM
IC50 [3]: 4.3 nM
IC50 (HCT116 cells): 74.5 nM

Compound: CN1CCN(c2ccc(OC(F)(F)F)c(Nc3ncc4c(n3)-c3c(c(C(N)=O)nn3CCO)CC4)c2)CC1 [Onvansertib]
safety profile in clinical studies ([4]; clinical studies): acceptable safety profile
clinical benefit ([4]; share of KRAS-mutant mCRC patients, early clinical research): 88%

Further lines, with some results ahead:

Vd ([1]; mouse, IV, 1.0 mg/kg, plasma): 2.89 L/kg
AUC(0-t) ([1]; mouse, IV, 1.0 mg/kg, plasma): 0.624 µM·h
clearance ([1]; mouse, IV, 1.0 mg/kg, plasma): 47.9 mL/min/kg
half-life ([1]; mouse, IV, 1.0 mg/kg, plasma): 69 min
AUC(0-t) ([1]; mouse, PO, 3.0 mg/kg, plasma): 1.02 µM·h
Cmax ([1]; mouse, PO, 3.0 mg/kg, plasma): 478 nM
Tmax ([1]; mouse, PO, 3.0 mg/kg, plasma): 45 min
bioavailability ([1]; mouse, plasma, PO 3.0 mg/kg vs IV 1.0 mg/kg): 54.2%
IC50 (HCT116 cells; Homo sapiens, HCT-116, 120 h): 30.8 nM
Compound: CCOc1sc(C(N)=O)c2c1-c1nc(Nc3cc(N4CCN(C)CC4)ccc3OC(F)(F)F)ncc1CC2 [Compound 2]
TGI [2]: 72.5%

IC50 [3]: 2.6 nM
Compound: CSc1sc(C(N)=O)c2c1-c1nc(Nc3cc(N4CCN(C)CC4)ncc3OC(F)(F)F)ncc1CC2 [Compound 5]

IC50 [3]: 6.9 nM
Compound: CN1CCN(c2ccc(OC(F)(F)F)c(Nc3ncc4c(n3)-c3c(CCO)sc(C(N)=O)c3CC4)c2)CC1 [Compound 6]

Vd ([1]; mouse, IV, 0.5 mg/kg, plasma): 2.04 L/kg
AUC(0-t) ([1]; mouse, IV, 0.5 mg/kg, plasma): 0.374 µM·h
clearance ([1]; mouse, IV, 0.5 mg/kg, plasma): 37.4 mL/min/kg
half-life ([1]; mouse, IV, 0.5 mg/kg, plasma): 44.4 min
AUC(0-t) ([1]; mouse, PO, 2.2 mg/kg, plasma): 0.459 µM·h
Cmax ([1]; mouse, PO, 2.2 mg/kg, plasma): 157 nM
Tmax ([1]; mouse, PO, 2.2 mg/kg, plasma): 45 min
bioavailability ([1]; mouse, plasma, PO 2.2 mg/kg vs IV 0.5 mg/kg): 30.9%
IC50 (HCT116 cells; Homo sapiens, HCT-116, 120 h): 52 nM
Compound: CSc1sc(C(N)=O)c2c1-c1nc(Nc3cc(N4CCN(CCO)CC4)ccc3OC(F)(F)F)ncc1CC2 [Compound 8]
TGI [2]: 85.4%

IC50 (HCT116 cells; Homo sapiens, HCT-116, 120 h): 29.2 nM
Compound: CN1CCN(c2ccc(OC(F)(F)F)c(Nc3ncc4c(n3)-c3c(C5CC5)sc(C(N)=O)c3CC4)c2)CC1 [Compound 16]

IC50 (HCT116 cells; Homo sapiens, HCT-116, 120 h): 18.3 nM
Compound: COc1nnc(N2CCN(C)CC2)cc1Nc1ncc2c(n1)-c1c(SC)sc(C(N)=O)c1CC2 [Compound 17]

IC50 (HCT116 cells; Homo sapiens, HCT-116, 120 h): 58.6 nM
Compound: CN1CCN(c2ccc(OC(F)(F)F)c(Nc3ncc4c(n3)-c3c(-c5ccco5)sc(C(N)=O)c3CC4)c2)CC1 [Compound 20]

IC50 (HCT116 cells; Homo sapiens, HCT-116, 120 h): 72 nM
Compound: CSc1sc(C(=O)NO)c2c1-c1nc(Nc3cc(N4CCN(C)CC4)ccc3OC(F)(F)F)ncc1CC2 [Compound 23]
